# Reference: the supplement of paper PMC10307832
# Legend:
# Test in all cases: relative viability (nuclei count vs DMSO), 5 days (fraction); higher = more cells survive
# [1] = compound: C1CC1C(=O)NC2=NNC3=C2C=CC(=C3)C4=CC(=CC=C4)C(=O)NC5CC5 [XMD13-2] + COc1cc2c(Oc3ccc(NC(=O)C4(C(=O)Nc5ccc(F)cc5)CC4)cc3F)ccnc2cc1OCCCN1CCOCC1 [Foretinib] (partner 0.25 µM)
# Summary of the method: (§1)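 Lung cancer cell lines were pin-tool dosed in 1536-well plates on the day after seeding, with either a lone drug or a fixed anchor-drug dose plus five library-drug doses (not always all listed) in √10 steps. Nuclei were counted on 4× images after 5 days. Relative viability is the ratio of treated-well to vehicle-well nuclei counts, with each value a median of duplicate plates.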
# [2] = compound: C1CC1C(=O)NC2=NNC3=C2C=CC(=C3)C4=CC(=CC=C4)C(=O)NC5CC5 [XMD13-2] + N=C(N)NC(=N)NCCc1ccccc1 [Phenformin] (partner 250 µM)
# Summary of the method: as §1
# [3] = compound: Cc1ccc(C(=O)Nc2cccc(C(F)(F)F)c2)cc1Nc1cncc(C(N)=O)c1 [ALW-II-49-7] + CS(=O)(=O)CCNCc1ccc(-c2ccc3ncnc(Nc4ccc(OCc5cccc(F)c5)c(Cl)c4)c3c2)o1 [Lapatinib] (partner 2 µM)
# Summary of the method: as §1
# [4] = compound: Cc1ccc(C(=O)Nc2cccc(C(F)(F)F)c2)cc1Nc1cncc(C(N)=O)c1 [ALW-II-49-7] + C[C@@H](Oc1cc(-c2cnn(C3CCNCC3)c2)cnc1N)c1c(Cl)ccc(F)c1Cl [Crizotinib] (partner 1 µM)
# Summary of the method: as §1
Cell Line,relative viability ([1]; first compound 0.05 µM),relative viability ([1]; first compound 0.1581 µM),relative viability ([1]; first compound 0.5 µM),relative viability ([1]; first compound 1.581 µM),relative viability ([1]; first compound 5 µM),relative viability ([2]; first compound 0.05 µM),relative viability ([2]; first compound 0.1581 µM),relative viability ([2]; first compound 0.5 µM),relative viability ([2]; first compound 1.581 µM),relative viability ([2]; first compound 5 µM),relative viability ([3]; first compound 0.08 µM),relative viability ([3]; first compound 0.253 µM),relative viability ([3]; first compound 0.8 µM),relative viability ([3]; first compound 2.53 µM),relative viability ([3]; first compound 8 µM),relative viability ([4]; first compound 0.08 µM),relative viability ([4]; first compound 0.253 µM),relative viability ([4]; first compound 0.8 µM),relative viability ([4]; first compound 2.53 µM),relative viability ([4]; first compound 8 µM)
NCI-H2023,0.82,0.825,0.791,0.798,0.864,0.561,0.434,0.399,0.428,0.426,0.801,0.6,0.866,0.743,0.58,0.703,0.714,0.554,0.622,0.729
EBC-1,0.0838,0.0911,0.109,0.124,0.0963,–,–,–,–,–,0.197,0.186,0.15,0.231,0.162,0.176,0.177,0.203,0.171,0.182
NCI-H1666,1.12,0.998,0.913,0.926,0.982,0.544,0.6,0.595,0.546,0.593,0.533,0.674,0.695,0.831,0.652,0.948,0.964,0.909,1.06,0.965
NCI-H1975,1.06,0.939,0.96,0.978,0.982,0.436,0.395,0.407,0.42,0.401,0.742,0.835,0.763,0.994,0.87,0.838,1.04,0.852,0.912,0.893
NCI-H2170,0.937,0.97,1.03,0.9,0.984,0.482,0.433,0.424,0.399,0.398,0.313,0.284,0.264,0.302,0.302,1.3,1.12,1.3,1.21,1.09
NCI-H1355,1.08,0.944,1.04,1.08,1.1,0.5,0.451,0.465,0.462,0.517,0.959,1.13,0.97,1.02,0.934,1,1.03,1.11,0.928,0.935
A549,1.08,0.972,0.902,0.965,0.97,0.547,0.152,0.153,0.12,0.232,0.958,1.03,1.01,1.05,0.978,0.753,0.852,0.596,0.754,0.624
SK-MES-1,0.866,0.967,1.06,0.87,1.15,0.699,0.657,0.696,0.598,0.644,0.481,0.458,0.477,0.487,0.474,0.885,0.979,0.948,0.926,0.7
EKVX,0.919,0.746,0.699,0.64,0.83,0.224,0.222,0.229,0.212,0.238,0.194,0.188,0.173,0.127,0.188,0.989,0.79,0.969,0.718,0.818
RERF-LC-KJ,0.871,0.869,0.87,0.795,0.844,0.5,0.435,0.446,0.407,0.396,0.867,0.948,0.867,0.941,0.859,0.831,0.924,0.992,0.831,0.741
NCI-H1755,1.04,0.871,0.939,0.86,0.937,0.643,0.666,0.596,0.642,0.677,0.904,1.04,1.04,1.04,0.608,0.917,0.859,0.753,0.79,0.69
NCI-H661,1,1.06,1.04,1.02,0.875,0.261,0.292,0.274,0.267,0.271,0.47,0.474,0.383,–,0.483,–,1,0.922,–,1.04
LOU-NH91,1.01,0.979,1,0.943,1.04,0.83,0.663,0.732,0.582,0.867,0.738,0.809,0.742,0.589,0.699,0.744,0.767,0.728,0.466,0.703
LXF-289,0.979,0.973,0.897,0.98,1.06,0.538,0.536,0.561,0.551,0.527,0.864,0.818,0.922,1.01,0.967,0.817,0.817,0.911,0.923,0.876
HCC-44,–,–,–,–,–,0.217,0.161,0.213,0.269,0.183,0.967,1.04,0.995,0.973,0.923,0.902,0.773,0.729,0.823,0.782
HARA,1.1,0.854,0.834,1.01,0.616,0.477,0.438,0.474,0.44,0.485,0.675,0.689,0.87,0.964,0.866,0.914,0.982,1.01,1.25,1.23
